Experiment: Ex vivo biodistribution (gamma counter)
Assay type: in vivo, healthy male C57BL/6 mice
Conditions: Hg-197g, 2 h post administration
Description: For animal injection, the tracer was prepared at high molar activity. Radiolabeling of H4Tetrathiol (10^–2 M in DMSO; 40 μL for imaging, 20 μL for bioD) (or DMSO, for [^197m/gHg]HgCl2 mice) with [^197m/gHg]HgCl2 (imaging: 26.7 MBq total m + g, 62 μL; bioD: 13.04 MBq total m + g, 31 μL) was performed in a mixture of ammonium acetate buffer (1 M; pH 7; 198 μL for imaging or 149 μL for bioD) and 6 M NaOH (72 μL or 38 μL required to achieve a pH of 7.5 after addition of activity, for imaging or BioD labeling, respectively). The reaction was allowed to stand for 1 h at 37 °C and quantitative (> 99%) non-isolated percentage radiochemical yield (%RCY) was confirmed via the iTLC methods mentioned above. Further, 100 µL of the reaction was diluted with 50 µL of PBS Tween-20 (0.01 M sodium phosphate, 0.15 M NaCl, 0.05% Tween-20) for imaging mice, or 50 µL of the reaction was diluted with 100 µL of PBS Tween-20 for BioD mice. The tracers were prepared immediately before injection to avoid radiolysis and minimize the tracer loss to any surfaces due to its lipophilicity. The injected doses of each isomer, ^197mHg and ^197gHg, were quantified by measuring an aliquot of known volume of each tracer preparation via HPGe gamma spectroscopy and decay corrected for time of injection using the Eqs. (1) and (2).
The study was conducted in compliance with the guidelines set by the Canadian Council on Animal Care (CCAC) and approved by the Animal Care Committee (ACC) at the University of British Columbia (A20-0132). A total of eight healthy male C57BL/6 mice weighing approximately 30 g for group 1 and 25 g for group 2 were used in the study. The mice were divided into two experimental groups: group 1 (n = 4) received free [^197m/gHg]HgCl2, while group 2 (n = 4) received [^197m/gHg]Hg-Tetrathiol. Within each group, one mouse was allocated for imaging, while the rest were designated for ex vivo biodistribution analysis. For SPECT imaging, the designated mice were anesthetized using isoflurane via a precision vaporizer. […] Once anesthetized, each imaging mouse received an intravenous (IV) injection via the lateral tail vein of 150 μL of [^197m/gHg]HgCl2 (0.492 MBq ^197mHg + 3.171 MBq ^197gHg) or [^197m/gHg]Hg-Tetrathiol (0.899 MBq ^197mHg + 4.230 MBq ^197gHg) in PBS Tween-20 (0.01 M Na Phosphate, 0.15 M NaCl, 0.05% Tween-20).
Mice received an IV injection of [^197m/gHg]HgCl2 (0.275 MBq ^197mHg + 1.758 MBq ^197gHg, 150 μL) or [^197m/gHg]Hg-Tetrathiol (0.384 MBq ^197mHg + 1.733 MBq ^197gHg, 150 μL) (n = 3 per group) via the lateral tail vein using a Tailveiner restrainer. After the injection, the mice were returned to their experimental cages and allowed unrestricted movement. Biodistribution studies were conducted 2 h after administration. Mice were humanely euthanized with an overdose of isoflurane followed by cardiac puncture to collect blood pool activity. The organs of interest were fully extracted, cleaned of blood without rinsing, weighed, and analysed for radioactivity using a calibrated gamma counter with the 55–93 keV energy window for ^197gHg and the 110–160 keV energy window for ^197mHg (Packard Cobra II, Perkin Elmer, Waltham, MA, USA). The stomach and intestines were carefully cleaned prior to analysis to remove residual contents. For tissues and fluids that could not be fully removed (muscle, blood and bone) activity values were extrapolated based on standardised organ weights for age- and sex-matched mice tables to ensure accurate normalization (Davies and Morris [1993]; Foster et al. [2014]). The stomach and whole intestines were cleaned before analysis. The radioactivity measurements were decay corrected for time of injection using the Eqs. (1) and (2). The results are reported as the percentage of the injected activity per gram of tissue (%IA/g) and percentage of the injected activity per tissue (%IA/organ).

[Cl][Hg][Cl] [[^197m/gHg]HgCl2]
Animal 1 (%IA/Organ): bladder: 0.10 %IA/Organ | Animal 1 (%IA/Organ): blood: 7.19 %IA/Organ | Animal 1 (%IA/Organ): bone: 4.96 %IA/Organ | Animal 1 (%IA/Organ): brain: 0.08 %IA/Organ | Animal 1 (%IA/Organ): feces: 0.04 %IA/Organ | Animal 1 (%IA/Organ): heart: 0.39 %IA/Organ | Animal 1 (%IA/Organ): kidneys: 51.84 %IA/Organ | Animal 1 (%IA/Organ): large intestine: 0.85 %IA/Organ | Animal 1 (%IA/Organ): liver: 11.53 %IA/Organ | Animal 1 (%IA/Organ): lungs: 0.87 %IA/Organ | Animal 1 (%IA/Organ): muscle: 12.34 %IA/Organ | Animal 1 (%IA/Organ): pancreas: 0.32 %IA/Organ | Animal 1 (%IA/Organ): small intestine: 0.99 %IA/Organ | Animal 1 (%IA/Organ): spleen: 0.47 %IA/Organ | Animal 1 (%IA/Organ): stomach: 0.29 %IA/Organ | Animal 1 (%IA/Organ): tail: 4.00 %IA/Organ | Animal 1 (%IA/Organ): urine: 1.57 %IA/Organ | Animal 1 (%IA/g) g: bladder: 1.28 %IA/g | Animal 1 (%IA/g) g: blood: 4.25 %IA/g | Animal 1 (%IA/g) g: bone: 2.26 %IA/g | Animal 1 (%IA/g) g: brain: 0.19 %IA/g | Animal 1 (%IA/g) g: feces: 0.96 %IA/g | Animal 1 (%IA/g) g: heart: 2.62 %IA/g | Animal 1 (%IA/g) g: kidneys: 110 %IA/g | Animal 1 (%IA/g) g: large intestine: 3.42 %IA/g | Animal 1 (%IA/g) g: lungs: 5.68 %IA/g | Animal 1 (%IA/g) g: muscle: 0.94 %IA/g | Animal 1 (%IA/g) g: pancreas: 1.76 %IA/g | Animal 1 (%IA/g) g: small intestine: 4.46 %IA/g | Animal 1 (%IA/g) g: spleen: 5.78 %IA/g | Animal 1 (%IA/g) g: stomach: 2.45 %IA/g | Animal 1 (%IA/g) g: tail: 7.68 %IA/g | Animal 1 (%IA/g) g: urine: 5.10 %IA/g | Animal 2 (%IA/Organ): bladder: 0.06 %IA/Organ | Animal 2 (%IA/Organ): blood: 5.88 %IA/Organ | Animal 2 (%IA/Organ): bone: 4.05 %IA/Organ | Animal 2 (%IA/Organ): brain: 0.04 %IA/Organ | Animal 2 (%IA/Organ): feces: 0.02 %IA/Organ | Animal 2 (%IA/Organ): heart: 0.21 %IA/Organ | Animal 2 (%IA/Organ): kidneys: 44.76 %IA/Organ | Animal 2 (%IA/Organ): large intestine: 0.60 %IA/Organ | Animal 2 (%IA/Organ): liver: 6.34 %IA/Organ | Animal 2 (%IA/Organ): lungs: 0.50 %IA/Organ | Animal 2 (%IA/Organ): muscle: 6.72 %IA/Organ | Animal 2 (%IA/Organ): pancreas: 0.22 %IA/Organ | Animal 2 (%IA/Organ): small intestine: 0.66 %IA/Organ | Animal 2 (%IA/Organ): spleen: 0.25 %IA/Organ | Animal 2 (%IA/Organ): stomach: 0.18 %IA/Organ | Animal 2 (%IA/Organ): tail: 2.34 %IA/Organ | Animal 2 (%IA/Organ): urine: 0.04 %IA/Organ | Animal 2 (%IA/g) g: bladder: 2.73 %IA/g | Animal 2 (%IA/g) g: blood: 3.53 %IA/g | Animal 2 (%IA/g) g: bone: 1.87 %IA/g | Animal 2 (%IA/g) g: brain: 0.10 %IA/g | Animal 2 (%IA/g) g: feces: 0.42 %IA/g | Animal 2 (%IA/g) g: heart: 1.60 %IA/g | Animal 2 (%IA/g) g: kidneys: 107 %IA/g | Animal 2 (%IA/g) g: large intestine: 2.61 %IA/g | Animal 2 (%IA/g) g: liver: 5.13 %IA/g | Animal 2 (%IA/g) g: lungs: 3.11 %IA/g | Animal 2 (%IA/g) g: muscle: 0.52 %IA/g | Animal 2 (%IA/g) g: pancreas: 1.31 %IA/g | Animal 2 (%IA/g) g: small intestine: 2.72 %IA/g | Animal 2 (%IA/g) g: spleen: 3.43 %IA/g | Animal 2 (%IA/g) g: stomach: 1.70 %IA/g | Animal 2 (%IA/g) g: tail: 4.62 %IA/g | Animal 2 (%IA/g) g: urine: 3.81 %IA/g | Animal 3 (%IA/Organ): bladder: 0.03 %IA/Organ | Animal 3 (%IA/Organ): blood: 5.49 %IA/Organ | Animal 3 (%IA/Organ): bone: 3.89 %IA/Organ | Animal 3 (%IA/Organ): brain: 0.05 %IA/Organ | Animal 3 (%IA/Organ): feces: 0.09 %IA/Organ | Animal 3 (%IA/Organ): heart: 0.20 %IA/Organ | Animal 3 (%IA/Organ): kidneys: 46.92 %IA/Organ | Animal 3 (%IA/Organ): large intestine: 0.43 %IA/Organ | Animal 3 (%IA/Organ): liver: 6.61 %IA/Organ | Animal 3 (%IA/Organ): lungs: 0.50 %IA/Organ | Animal 3 (%IA/Organ): muscle: 6.84 %IA/Organ | Animal 3 (%IA/Organ): pancreas: 0.25 %IA/Organ | Animal 3 (%IA/Organ): small intestine: 0.62 %IA/Organ | Animal 3 (%IA/Organ): spleen: 0.22 %IA/Organ | Animal 3 (%IA/Organ): stomach: 0.18 %IA/Organ | Animal 3 (%IA/Organ): tail: 2.23 %IA/Organ | Animal 3 (%IA/Organ): urine: 0.63 %IA/Organ | Animal 3 (%IA/g) g: bladder: 1.50 %IA/g | Animal 3 (%IA/g) g: blood: 3.33 %IA/g | Animal 3 (%IA/g) g: bone: 1.79 %IA/g | Animal 3 (%IA/g) g: brain: 0.11 %IA/g | Animal 3 (%IA/g) g: feces: 2.78 %IA/g | Animal 3 (%IA/g) g: heart: 1.46 %IA/g | Animal 3 (%IA/g) g: kidneys: 108 %IA/g | Animal 3 (%IA/g) g: large intestine: 2.41 %IA/g | Animal 3 (%IA/g) g: liver: 4.96 %IA/g | Animal 3 (%IA/g) g: lungs: 3.44 %IA/g | Animal 3 (%IA/g) g: muscle: 0.53 %IA/g | Animal 3 (%IA/g) g: pancreas: 1.39 %IA/g | Animal 3 (%IA/g) g: small intestine: 2.89 %IA/g | Animal 3 (%IA/g) g: spleen: 2.94 %IA/g | Animal 3 (%IA/g) g: stomach: 1.57 %IA/g | Animal 3 (%IA/g) g: tail: 4.40 %IA/g | Animal 3 (%IA/g) g: urine: 3.90 %IA/g | Animal 4 (%IA/Organ): bladder: 0.07 %IA/Organ | Animal 4 (%IA/Organ): blood: 4.67 %IA/Organ | Animal 4 (%IA/Organ): bone: 3.74 %IA/Organ | Animal 4 (%IA/Organ): brain: 0.05 %IA/Organ | Animal 4 (%IA/Organ): feces: 0.07 %IA/Organ | Animal 4 (%IA/Organ): heart: 0.21 %IA/Organ | Animal 4 (%IA/Organ): kidneys: 49.72 %IA/Organ | Animal 4 (%IA/Organ): large intestine: 0.41 %IA/Organ | Animal 4 (%IA/Organ): liver: 6.62 %IA/Organ | Animal 4 (%IA/Organ): lungs: 0.46 %IA/Organ | Animal 4 (%IA/Organ): muscle: 6.43 %IA/Organ | Animal 4 (%IA/Organ): pancreas: 0.20 %IA/Organ | Animal 4 (%IA/Organ): small intestine: 0.54 %IA/Organ | Animal 4 (%IA/Organ): spleen: 0.32 %IA/Organ | Animal 4 (%IA/Organ): stomach: 0.17 %IA/Organ | Animal 4 (%IA/Organ): tail: 1.77 %IA/Organ | Animal 4 (%IA/Organ): urine: 0.38 %IA/Organ | Animal 4 (%IA/g) g: bladder: 2.90 %IA/g | Animal 4 (%IA/g) g: blood: 3.00 %IA/g | Animal 4 (%IA/g) g: bone: 1.85 %IA/g | Animal 4 (%IA/g) g: brain: 0.12 %IA/g | Animal 4 (%IA/g) g: feces: 1.01 %IA/g | Animal 4 (%IA/g) g: heart: 1.49 %IA/g

— paper PMC12521730, “Quantitative dual-isotope preclinical SPECT/CT imaging and biodistribution of the mercury-197m/g theranostic pair with [^197m/gHg]HgCl2 and a [^197m/gHg]Hg-tetrathiol complex as a platform for radiopharmaceutical development” (EJNMMI Radiopharmacy and Chemistry, 2025)
